Assay results as given in PubChem BioAssay AID2060485 (Molecular Pharmacology Branch, DTP, NCI, 2025).

System: A375 multi-cell spheroids with HUVEC/MSC, viability
Experiment: Anticancer human tumor A375 cell line growth inhibition [GQUAD];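 further: spheroids exposed to compounds for seven days before readout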
Conditions: for IC50: curve of first compound; for viability, T/C: stronger effect = lower value
Outline: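 Multi-cell-type spheroids of tumor cells with HUVEC and mesenchymal stem cells, treated with drug combinations. Concentrations descend in half-log steps from near clinical Cmax, or from 10 microM where Cmax is unknown; viability read-out.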

[1] = second compound 0.0316 µM, first compound 0.0316 µM
[2] = second compound 0.0316 µM, first compound 0.1 µM
[3] = second compound 0.0316 µM, first compound 0.316 µM
[4] = second compound 0.0316 µM, first compound 1 µM
[5] = second compound 0.0316 µM, first compound 3.16 µM
[6] = second compound 0.0316 µM, first compound 10 µM
[7] = second compound 0.1 µM, first compound 0.0316 µM
[8] = second compound 0.1 µM, first compound 0.1 µM
[9] = second compound 0.1 µM, first compound 0.316 µM
[10] = second compound 0.1 µM, first compound 1 µM
[11] = second compound 0.1 µM, first compound 3.16 µM
[12] = second compound 0.1 µM, first compound 10 µM
[13] = second compound 0.316 µM, first compound 0.0316 µM
[14] = second compound 0.316 µM, first compound 0.1 µM
[15] = second compound 0.316 µM, first compound 0.316 µM
[16] = second compound 0.316 µM, first compound 1 µM
[17] = second compound 0.316 µM, first compound 3.16 µM
[18] = second compound 0.316 µM, first compound 10 µM
[19] = second compound 1 µM, first compound 0.0316 µM
[20] = second compound 1 µM, first compound 0.1 µM
[21] = second compound 1 µM, first compound 0.316 µM
[22] = second compound 1 µM, first compound 1 µM
[23] = second compound 1 µM, first compound 3.16 µM
[24] = second compound 1 µM, first compound 10 µM
[25] = second compound 3.16 µM, first compound 0.0316 µM
[26] = second compound 3.16 µM, first compound 0.1 µM
[27] = second compound 3.16 µM, first compound 0.316 µM
[28] = second compound 3.16 µM, first compound 1 µM
[29] = second compound 3.16 µM, first compound 3.16 µM
[30] = second compound 3.16 µM, first compound 10 µM
[31] = second compound 10 µM, first compound 0.0316 µM
[32] = second compound 10 µM, first compound 0.1 µM
[33] = second compound 10 µM, first compound 0.316 µM
[34] = second compound 10 µM, first compound 1 µM
[35] = second compound 10 µM, first compound 3.16 µM
[36] = second compound 10 µM, first compound 10 µM

## C#Cc1c(F)ccc2cc(O)cc(-c3ncc4c(N5CC6CCC(C5)N6)nc(OCC56CCCN5CC(F)C6)nc4c3F)c12 (stereo unspecified) + Cc1[nH]c2ccc(F)cc2c1-c1nc2c3cccnc3c3ncccc3c2[nH]1
Second compound 0.0316 µM
  IC50: > 10000 nM
Second compound 0.1 µM
  IC50: > 10000 nM
Second compound 0.316 µM
  IC50: > 10000 nM
Second compound 1 µM
  IC50: > 10000 nM
Second compound 3.16 µM
  IC50: 5370 nM
Second compound 10 µM
  IC50: > 10000 nM
[1]
  viability, T/C: 102%
[2]
  viability, T/C: 99.5%
[3]
  viability, T/C: 97.1%
[4]
  viability, T/C: 107%
[5]
  viability, T/C: 97.2%
[6]
  viability, T/C: 97.1%
[7]
  viability, T/C: 104%
[8]
  viability, T/C: 104%
[9]
  viability, T/C: 99.4%
[10]
  viability, T/C: 102%
[11]
  viability, T/C: 101%
[12]
  viability, T/C: 102%
[13]
  viability, T/C: 105%
[14]
  viability, T/C: 104%
[15]
  viability, T/C: 96.7%
[16]
  viability, T/C: 101%
[17]
  viability, T/C: 101%
[18]
  viability, T/C: 101%
[19]
  viability, T/C: 113%
[20]
  viability, T/C: 104%
[21]
  viability, T/C: 94.2%
[22]
  viability, T/C: 97.2%
[23]
  viability, T/C: 105%
[24]
  viability, T/C: 103%
[25]
  viability, T/C: 81.8%
[26]
  viability, T/C: 71.6%
[27]
  viability, T/C: 74.2%
[28]
  viability, T/C: 84.7%
[29]
  viability, T/C: 62.3%
[30]
  viability, T/C: 35.6%
[31]
  viability, T/C: 86.5%
[32]
  viability, T/C: 86.9%
[33]
  viability, T/C: 94.4%
[34]
  viability, T/C: 79.8%
[35]
  viability, T/C: 78%
[36]
  viability, T/C: 61.8%

## CC(=O)O[C@H]1C(=O)[C@@]2(C)[C@H]([C@H](OC(=O)c3ccccc3)[C@]3(O)C[C@H](OC(=O)[C@H](O)[C@@H](NC(=O)c4ccccc4)c4ccccc4)C(C)=C1C3(C)C)[C@]1(OC(C)=O)CO[C@@H]1C[C@@H]2O + Cc1[nH]c2ccc(F)cc2c1-c1nc2c3cccnc3c3ncccc3c2[nH]1
Second compound 0.0316 µM
  IC50: 46.8 nM
Second compound 0.1 µM
  IC50: 52.3 nM
Second compound 0.316 µM
  IC50: 52.5 nM
Second compound 1 µM
  IC50: 50.9 nM
Second compound 3.16 µM
  IC50: < 31.6 nM
Second compound 10 µM
  IC50: < 31.6 nM
[1]
  viability, T/C: 67.1%
[2]
  viability, T/C: 16.8%
[3]
  viability, T/C: 9.66%
[4]
  viability, T/C: 8.81%
[5]
  viability, T/C: 9.39%
[6]
  viability, T/C: 10.1%
[7]
  viability, T/C: 73.9%
[8]
  viability, T/C: 19.3%
[9]
  viability, T/C: 10.3%
[10]
  viability, T/C: 11.5%
[11]
  viability, T/C: 7.58%
[12]
  viability, T/C: 12.6%
[13]
  viability, T/C: 72.2%
[14]
  viability, T/C: 21.9%
[15]
  viability, T/C: 11.6%
[16]
  viability, T/C: 11.8%
[17]
  viability, T/C: 10.5%
[18]
  viability, T/C: 13.2%
[19]
  viability, T/C: 68.5%
[20]
  viability, T/C: 23.8%
[21]
  viability, T/C: 14.5%
[22]
  viability, T/C: 13.7%
[23]
  viability, T/C: 13.9%
[24]
  viability, T/C: 17.3%
[25]
  viability, T/C: 25.6%
[26]
  viability, T/C: 16%
[27]
  viability, T/C: 15%
[28]
  viability, T/C: 19.8%
[29]
  viability, T/C: 14.5%
[30]
  viability, T/C: 12.9%
[31]
  viability, T/C: 33.6%
[32]
  viability, T/C: 22.9%
[33]
  viability, T/C: 18.8%
[34]
  viability, T/C: 18.8%
[35]
  viability, T/C: 17.9%
[36]
  viability, T/C: 18.8%

## CCCS(=O)(=O)Nc1ccc(F)c(C(=O)c2c[nH]c3ncc(-c4ccc(Cl)cc4)cc23)c1F + Cc1[nH]c2ccc(F)cc2c1-c1nc2c3cccnc3c3ncccc3c2[nH]1
Second compound 0.0316 µM
  IC50: < 31.6 nM
Second compound 0.1 µM
  IC50: < 31.6 nM
Second compound 0.316 µM
  IC50: < 31.6 nM
Second compound 1 µM
  IC50: < 31.6 nM
Second compound 3.16 µM
  IC50: < 31.6 nM
Second compound 10 µM
  IC50: < 31.6 nM
[1]
  viability, T/C: 47.1%
[2]
  viability, T/C: 14.9%
[3]
  viability, T/C: 7.54%
[4]
  viability, T/C: 5.63%
[5]
  viability, T/C: 6%
[6]
  viability, T/C: 6.44%
[7]
  viability, T/C: 40.4%
[8]
  viability, T/C: 15.4%
[9]
  viability, T/C: 8.57%
[10]
  viability, T/C: 6.32%
[11]
  viability, T/C: 5.78%
[12]
  viability, T/C: 5.39%
[13]
  viability, T/C: 43.6%
[14]
  viability, T/C: 13.7%
[15]
  viability, T/C: 8.7%
[16]
  viability, T/C: 6.15%
[17]
  viability, T/C: 5.37%
[18]
  viability, T/C: 4.44%
[19]
  viability, T/C: 32%
[20]
  viability, T/C: 14.6%
[21]
  viability, T/C: 7.98%
[22]
  viability, T/C: 5.57%
[23]
  viability, T/C: 5%
[24]
  viability, T/C: 1.74%
[25]
  viability, T/C: 24.6%
[26]
  viability, T/C: 10%
[27]
  viability, T/C: 6.35%
[28]
  viability, T/C: 3.57%
[29]
  viability, T/C: 1.79%
[30]
  viability, T/C: 0.23%
[31]
  viability, T/C: 30.4%
[32]
  viability, T/C: 13.4%
[33]
  viability, T/C: 7.1%
[34]
  viability, T/C: 4.44%
[35]
  viability, T/C: 3.27%
[36]
  viability, T/C: 0.2%
